Experimental data as given in US20080004311A1, “HISTONE DEACETYLASE INHIBITORS FOR TREATING DEGENERATIVE DISEASES OF THE EYE” (ALCON, INC., priority 2002, published 2008).

Test system: cultured adult rat retinal ganglion cells (RGC)
Experiment: Survival of cultured adult rat retinal ganglion cells (RGC), Thy-1-positive healthy cell count
Type: cell-based
Conditions: Thy-1-positive healthy cells counted; for RGC survival against trophic factor withdrawal (TFW)-induced toxicity: bFGF, BDNF and CNTF removed from medium, cultured with compound for 3 days; for RGC survival against TNFα-induced toxicity / RGC survival against glutamate-induced toxicity: pre-treated 30 minutes; for RGC survival against TNFα-induced toxicity: then 10 ng/mL TNFα for 3 days; for RGC survival against glutamate-induced toxicity: then 100 μM glutamate for 3 days
Procedure: Culture of rat retinal ganglion cells (RGC) was performed as described in Pang et al. (Pang et al., 2007, BMC Neuroscience 8:11). Adult Sprague-Dawley rats were briefly euthanized by CO2 asphyxiation. Their eyes were enucleated and placed in the Neurobasal medium. The retina from each eye was detached and isolated. Retinal cells were dissociated by combining up to 20 retinas with 5 mL of papain solution, containing 10 mg papain, 2 mg DL-cysteine, and 2 mg bovine serum albumin in 5 ml of Neurobasal medium, for 25 min at 37° C., then washed 3 times with 5 mL RGC medium (Neurobasal medium with various nutrient supplements)+1% fetal calf serum. Retinal pieces were triturated by passing through a fire-polished disposable pipette several times until cells were dispersed. Cell suspension was placed onto of the poly-D-lysine- and laminin-coated 8-well chambered culture slide. The cells were then cultured in 95% air/5% CO2 at 37° C.
For glutamate-induced toxicity studies, cells were pre-treated with vehicle (cell media plus 0.1% DMSO) or the indicated compounds for 30 minutes, followed by 100 μM glutamate for 3 days. For TNFα-induced toxicity studies, cells were pre-treated with vehicle or the indicated compounds for 30 minutes, followed by 10 ng/mL TNFα for 3 days. For s trophic factor withdrawal (TFW) studies, three trophic factors, basic fibroblast growth factor, brain-derived neurotrophic factor, and ciliary neurotrophic factor, were removed from the culture medium. Cells were cultured in this medium with the indicated compounds for 3 days.
At the end of the incubation period, the cells were fixed and labeled for Thy-1, a RGC marker, by immunocytochemistry. Cell survival was quantified by manually counting Thy-1-positive healthy cells in each well. As shown by the data in FIGS. 1, 2, and 3, APHA-8 (Sigma, St. Louis, Mo.) and Scriptaid™ (Sigma, St. Louis, Mo.) were protective against glutamate-, tumor necrosis factor-alpha (TNFα)-, and trophic factor withdrawal (TFW)-induced toxicity.

Cn1cc(C(=O)Cc2ccccc2)cc1C=CC(=O)NO [APHA-8, 3-(1-methyl-4-phenlyacetyl-1H-2-pyrrolyl)-N-hydroxy-2-propenamide]
protective: RGC survival against trophic factor withdrawal (TFW)-induced toxicity | RGC survival against TNFα-induced toxicity | RGC survival against glutamate-induced toxicity

O=C(CCCCCN1C(=O)c2cccc3cccc(c23)C1=O)NO [Scriptaid™, 6-(1,3-Dioxo-1H, 3H-benzo[de]isoquinolin-2-yl)-hexanoic acid hydroxyamide]
protective: RGC survival against trophic factor withdrawal (TFW)-induced toxicity | RGC survival against TNFα-induced toxicity | RGC survival against glutamate-induced toxicity
